Test results published in ChEMBL document CHEMBL3714769, “Heterocyclic compounds for the inhibition of pask” (2014).

Molecular target: PAS domain-containing serine/threonine-protein kinase (Homo sapiens, UniProt Q96RG2)
Assay: Inhibition of human recombinant PASK using Ulight-peptide substrate incubated for 2 hrs by TR-FRET assay

PAS domain-containing serine/threonine-protein kinase, sequence (Q96RG2 whole entry, the tested form may be a part): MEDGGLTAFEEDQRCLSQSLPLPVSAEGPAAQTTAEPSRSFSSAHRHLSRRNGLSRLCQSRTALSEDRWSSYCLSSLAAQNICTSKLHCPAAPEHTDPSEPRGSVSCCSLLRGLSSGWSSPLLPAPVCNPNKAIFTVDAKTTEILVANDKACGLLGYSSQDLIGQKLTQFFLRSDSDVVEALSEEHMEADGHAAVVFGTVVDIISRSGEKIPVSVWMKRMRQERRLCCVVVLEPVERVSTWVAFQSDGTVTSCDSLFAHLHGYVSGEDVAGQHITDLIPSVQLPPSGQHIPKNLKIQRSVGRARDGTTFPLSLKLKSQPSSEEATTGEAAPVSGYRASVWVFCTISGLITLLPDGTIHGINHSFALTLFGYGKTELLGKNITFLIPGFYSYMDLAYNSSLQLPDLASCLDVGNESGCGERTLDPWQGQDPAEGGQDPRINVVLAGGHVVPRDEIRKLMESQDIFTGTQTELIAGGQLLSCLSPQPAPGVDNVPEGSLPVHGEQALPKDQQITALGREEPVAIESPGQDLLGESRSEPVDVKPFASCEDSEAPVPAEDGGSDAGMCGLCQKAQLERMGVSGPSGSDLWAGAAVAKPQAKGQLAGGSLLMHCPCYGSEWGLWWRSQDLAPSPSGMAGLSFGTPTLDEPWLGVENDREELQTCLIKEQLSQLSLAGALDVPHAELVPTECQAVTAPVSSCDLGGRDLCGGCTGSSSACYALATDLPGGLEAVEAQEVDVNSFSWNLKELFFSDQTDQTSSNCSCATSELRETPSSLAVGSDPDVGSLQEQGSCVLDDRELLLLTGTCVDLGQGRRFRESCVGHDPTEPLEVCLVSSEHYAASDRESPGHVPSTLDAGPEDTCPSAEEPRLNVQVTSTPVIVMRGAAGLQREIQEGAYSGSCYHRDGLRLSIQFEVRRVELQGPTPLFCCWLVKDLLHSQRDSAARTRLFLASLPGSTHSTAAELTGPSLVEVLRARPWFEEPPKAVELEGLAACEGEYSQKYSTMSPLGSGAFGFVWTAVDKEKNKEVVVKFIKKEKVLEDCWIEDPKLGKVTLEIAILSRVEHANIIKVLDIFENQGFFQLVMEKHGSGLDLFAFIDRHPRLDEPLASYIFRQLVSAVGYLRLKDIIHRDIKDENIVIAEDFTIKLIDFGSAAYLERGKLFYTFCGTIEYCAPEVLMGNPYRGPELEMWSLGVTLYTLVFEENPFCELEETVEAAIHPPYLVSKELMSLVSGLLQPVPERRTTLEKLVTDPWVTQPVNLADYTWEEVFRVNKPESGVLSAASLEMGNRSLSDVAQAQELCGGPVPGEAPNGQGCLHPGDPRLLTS

IC50 | SMILES
≤ 10 µM | O=c1cc(-c2ccc3[nH]nnc3c2)[nH]c2nc(-c3ccc(Cl)c(Cl)c3)nn12
≤ 10 µM | COc1cc(-c2cc(=O)n3nc(-c4ccc(F)cc4)nc3[nH]2)ccc1Cl
